Results published in publication PMC11879040, “Advancing systemic toxicity risk assessment: Evaluation of a NAM-based toolbox approach” (Toxicological Sciences, 2024).
Counter-ions that a name gives are not always drawn. Like-named read-outs stand apart in the source and are kept apart here.

Assays:
[1] = tested on: Gamma-aminobutyric acid receptor subunit alpha-1 BZD site, GABRA1A (r); assay type: binding, rat; conditions: IPP screening at 10 uM; control diazepam
[2] = tested on: Thyroid hormone receptor alpha, THRA (h); test: IPP THRA coactivator recruitment (agonist); assay type: biochemical, human; conditions: agonist, T3
Tubulin (r) = test: IPP Tubulin binding; design: species or system rat
[3] = tested on: Glutamate receptor ionotropic NMDA 1 non-selective, GRIN1 (r)
[4] = target: Voltage-dependent L-type Ca2+ channel (dihydropyridine site), CACNA1C (r) (Rattus norvegicus, UniProt P22002); assay type: binding
Voltage-dependent L-type Ca2+ channel (dihydropyridine site), CACNA1C (r), sequence (P22002 whole entry): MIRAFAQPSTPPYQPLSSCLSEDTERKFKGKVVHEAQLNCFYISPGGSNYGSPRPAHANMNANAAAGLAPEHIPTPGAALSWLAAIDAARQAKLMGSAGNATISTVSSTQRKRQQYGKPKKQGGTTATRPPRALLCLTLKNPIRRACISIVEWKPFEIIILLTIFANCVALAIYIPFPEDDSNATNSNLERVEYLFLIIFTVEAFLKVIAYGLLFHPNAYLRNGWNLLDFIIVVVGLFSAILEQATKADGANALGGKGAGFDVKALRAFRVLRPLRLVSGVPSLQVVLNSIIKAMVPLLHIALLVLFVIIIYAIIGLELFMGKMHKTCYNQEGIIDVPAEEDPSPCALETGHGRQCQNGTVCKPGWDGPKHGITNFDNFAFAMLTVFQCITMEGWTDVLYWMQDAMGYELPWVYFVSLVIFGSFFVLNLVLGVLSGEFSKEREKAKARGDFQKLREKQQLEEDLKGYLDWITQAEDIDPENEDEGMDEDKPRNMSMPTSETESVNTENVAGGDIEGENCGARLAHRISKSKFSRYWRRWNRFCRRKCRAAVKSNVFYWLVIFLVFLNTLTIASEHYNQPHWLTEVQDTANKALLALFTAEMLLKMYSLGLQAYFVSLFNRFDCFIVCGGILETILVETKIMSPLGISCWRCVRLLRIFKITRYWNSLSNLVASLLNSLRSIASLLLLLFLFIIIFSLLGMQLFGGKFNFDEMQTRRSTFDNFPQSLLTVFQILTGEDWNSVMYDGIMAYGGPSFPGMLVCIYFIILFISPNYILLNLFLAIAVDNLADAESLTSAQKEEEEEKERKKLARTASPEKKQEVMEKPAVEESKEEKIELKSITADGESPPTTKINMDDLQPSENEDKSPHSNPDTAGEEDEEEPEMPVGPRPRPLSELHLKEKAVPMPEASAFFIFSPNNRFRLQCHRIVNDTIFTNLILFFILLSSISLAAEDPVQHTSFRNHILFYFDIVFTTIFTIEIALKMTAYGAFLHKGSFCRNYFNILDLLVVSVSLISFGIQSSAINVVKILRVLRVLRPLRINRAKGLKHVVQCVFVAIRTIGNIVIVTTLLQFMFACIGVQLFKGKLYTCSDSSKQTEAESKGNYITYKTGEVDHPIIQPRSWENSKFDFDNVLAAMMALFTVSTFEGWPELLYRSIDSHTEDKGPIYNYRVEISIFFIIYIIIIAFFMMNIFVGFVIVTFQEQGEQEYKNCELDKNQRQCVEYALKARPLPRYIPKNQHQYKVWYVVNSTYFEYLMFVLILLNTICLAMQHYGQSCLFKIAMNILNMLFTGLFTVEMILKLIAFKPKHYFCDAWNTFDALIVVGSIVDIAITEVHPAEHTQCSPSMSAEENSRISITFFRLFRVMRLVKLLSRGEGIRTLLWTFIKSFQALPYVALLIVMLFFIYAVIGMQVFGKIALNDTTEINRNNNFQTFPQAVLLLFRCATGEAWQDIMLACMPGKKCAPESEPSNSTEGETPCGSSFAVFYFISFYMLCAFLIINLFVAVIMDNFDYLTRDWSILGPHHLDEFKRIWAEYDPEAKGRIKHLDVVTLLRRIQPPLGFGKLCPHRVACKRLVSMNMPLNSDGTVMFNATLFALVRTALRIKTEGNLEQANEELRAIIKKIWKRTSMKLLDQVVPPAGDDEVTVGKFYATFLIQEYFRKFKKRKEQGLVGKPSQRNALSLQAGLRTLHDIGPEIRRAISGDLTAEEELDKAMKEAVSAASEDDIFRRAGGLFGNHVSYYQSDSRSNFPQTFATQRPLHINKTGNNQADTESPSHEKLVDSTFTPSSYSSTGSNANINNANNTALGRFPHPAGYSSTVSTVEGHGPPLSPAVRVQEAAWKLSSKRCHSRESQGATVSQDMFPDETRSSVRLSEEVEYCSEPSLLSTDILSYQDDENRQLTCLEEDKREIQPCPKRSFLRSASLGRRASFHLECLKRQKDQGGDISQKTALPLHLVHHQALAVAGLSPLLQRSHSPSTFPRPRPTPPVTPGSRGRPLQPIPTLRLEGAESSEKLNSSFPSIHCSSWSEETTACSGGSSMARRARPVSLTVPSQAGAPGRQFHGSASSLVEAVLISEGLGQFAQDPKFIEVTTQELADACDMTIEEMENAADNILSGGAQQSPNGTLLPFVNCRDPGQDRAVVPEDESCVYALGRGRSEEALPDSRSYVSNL

[5] = tested on: Potassium Voltage-Gated Channel Kv non-selective, KCNQ1 (r); test: IPP KCNQ1 binding (antagonist radioligand); design: species or system rat
HepG2 cells [6] = test: Cell stress panel (CSP), 24 h, 8 concentrations, BIFROST global PoD; assay type: cell-based; conditions: HepG2; cell stress panel PoD
Protocol: Compounds were tested using the previously developed cell stress panel ([Hatherell et al. 2020]) and the expanded biomarker panel outlined in Middleton et al. HepG2 cells were treated with all compounds for 24 h across 8 concentrations prior to biomarker analysis. The same plate layout and number of replicates (3 biological and 2 technical) were used as previously for each assay within the panel.

HepaRG cells = test: High-throughput transcriptomics (HTTr, TempO-Seq), HepaRG, 24 h; assay type: cell-based, human; conditions: HepaRG; for pod_httr_bifrost PoD: HTTr BIFROST PoD; for podl_path_minbmd PoD: HTTr minimum pathway BMD(L)
Protocol: (§1) HepG2, HepaRG, and MCF7 cells were treated with each compound for 24 h across a dose range of 7 concentrations and lysed using TempO-Seq lysis buffer (BioSpyder Technologies, proprietary kit, see [Middleton et al. 2022] for method details). Sequencing was performed using TempO-Seq (BioClavis) version 2 of the human whole transcriptome panel and analyzed as described previously in Middleton et al.

[7] = PBK model plasma Cmax estimate (Gastroplus 9.8; levels L1, L2, L3); design: species or system human
HepG2 cells [8] = test: High-throughput transcriptomics (HTTr, TempO-Seq), HepG2, 24 h; assay type: cell-based, human; conditions: HepG2; for pod_httr_bifrost PoD: HTTr BIFROST PoD; for podl_path_minbmd PoD: HTTr minimum pathway BMD(L)
Protocol: as §1

MCF7 cells = test: High-throughput transcriptomics (HTTr, TempO-Seq), MCF7, 24 h; assay type: cell-based, human; conditions: MCF-7; for pod_httr_bifrost PoD: HTTr BIFROST PoD; for podl_path_minbmd PoD: HTTr minimum pathway BMD(L)
Protocol: as §1

[9] = target: T1, Adenosine receptor A2a, ADORA2A (h) (Homo sapiens, UniProt P29274); test: IPP ADORA2A binding (agonist radioligand); conditions: control NECA
T1 construct: purchased Eurofins Cerep (SafetyScreen44-based IPP panel)
T1 sequence (P29274 whole entry): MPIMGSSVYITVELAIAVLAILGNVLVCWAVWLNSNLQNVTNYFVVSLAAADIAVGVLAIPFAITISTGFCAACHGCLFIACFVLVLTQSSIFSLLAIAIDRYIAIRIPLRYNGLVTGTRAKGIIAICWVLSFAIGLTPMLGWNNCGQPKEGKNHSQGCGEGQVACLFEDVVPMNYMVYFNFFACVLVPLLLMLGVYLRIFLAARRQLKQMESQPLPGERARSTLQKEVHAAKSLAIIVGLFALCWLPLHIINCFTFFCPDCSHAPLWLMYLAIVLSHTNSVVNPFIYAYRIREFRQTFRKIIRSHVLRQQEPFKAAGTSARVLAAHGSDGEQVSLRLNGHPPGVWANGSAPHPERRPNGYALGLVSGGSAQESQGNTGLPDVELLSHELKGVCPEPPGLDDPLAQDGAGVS

[10] = tested on: Sodium channel protein type 5 subunit alpha (site 2), SCN5A (r); assay type: binding, rat
[11] = target: Potassium voltage-gated channel subfamily H member 2 hERG, KCNH2 (h) (Homo sapiens, UniProt Q12809); conditions: human
Potassium voltage-gated channel subfamily H member 2 hERG, KCNH2 (h), sequence (Q12809 whole entry): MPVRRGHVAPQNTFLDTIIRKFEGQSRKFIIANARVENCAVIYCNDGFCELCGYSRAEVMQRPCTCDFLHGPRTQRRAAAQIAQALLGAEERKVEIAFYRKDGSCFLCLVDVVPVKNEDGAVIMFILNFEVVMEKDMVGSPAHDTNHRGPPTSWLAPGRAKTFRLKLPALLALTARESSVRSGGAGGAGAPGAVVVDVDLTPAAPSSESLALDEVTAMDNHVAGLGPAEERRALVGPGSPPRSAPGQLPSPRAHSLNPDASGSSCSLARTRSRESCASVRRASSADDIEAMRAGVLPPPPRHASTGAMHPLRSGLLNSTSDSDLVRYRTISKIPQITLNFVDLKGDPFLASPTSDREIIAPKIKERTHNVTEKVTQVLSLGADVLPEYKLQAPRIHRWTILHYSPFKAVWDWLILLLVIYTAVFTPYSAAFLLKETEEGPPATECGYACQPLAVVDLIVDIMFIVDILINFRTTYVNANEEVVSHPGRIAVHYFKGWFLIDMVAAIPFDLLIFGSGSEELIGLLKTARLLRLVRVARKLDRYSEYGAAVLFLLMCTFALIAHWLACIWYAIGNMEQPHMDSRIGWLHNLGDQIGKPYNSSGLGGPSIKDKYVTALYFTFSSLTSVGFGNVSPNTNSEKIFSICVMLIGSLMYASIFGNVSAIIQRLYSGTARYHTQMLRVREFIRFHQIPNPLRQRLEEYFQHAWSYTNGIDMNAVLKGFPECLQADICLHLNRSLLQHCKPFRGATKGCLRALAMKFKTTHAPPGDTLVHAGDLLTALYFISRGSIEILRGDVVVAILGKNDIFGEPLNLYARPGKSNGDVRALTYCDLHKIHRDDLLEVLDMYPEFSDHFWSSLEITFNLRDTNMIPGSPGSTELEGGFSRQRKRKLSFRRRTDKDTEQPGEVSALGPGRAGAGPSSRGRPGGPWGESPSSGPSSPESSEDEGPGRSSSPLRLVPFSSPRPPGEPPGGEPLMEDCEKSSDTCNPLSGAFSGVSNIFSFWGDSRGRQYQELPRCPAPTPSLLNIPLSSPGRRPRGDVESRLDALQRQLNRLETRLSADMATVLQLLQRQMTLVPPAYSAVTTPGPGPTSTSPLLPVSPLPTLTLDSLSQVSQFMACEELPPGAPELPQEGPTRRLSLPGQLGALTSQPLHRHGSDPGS

rat = conditions: rat; chronic; ref NTP study; cited from earlier work
[12] = human
[13] = tested on: 63 targets with known safety liabilities; test: In vitro pharmacological profiling (IPP) panel, screening at 10 or 100 µM and dose response, minimum IC50/AC50; assay type: biochemical; conditions: read-out: ipp_lowest_ac50_systemic PoD
[14] = per chemical see Peff Reference, cited from earlier work
[15] = target: 5-hydroxytryptamine receptor 2B, HTR2B (h) (Homo sapiens, UniProt P41595)
5-hydroxytryptamine receptor 2B, HTR2B (h), sequence (P41595 whole entry): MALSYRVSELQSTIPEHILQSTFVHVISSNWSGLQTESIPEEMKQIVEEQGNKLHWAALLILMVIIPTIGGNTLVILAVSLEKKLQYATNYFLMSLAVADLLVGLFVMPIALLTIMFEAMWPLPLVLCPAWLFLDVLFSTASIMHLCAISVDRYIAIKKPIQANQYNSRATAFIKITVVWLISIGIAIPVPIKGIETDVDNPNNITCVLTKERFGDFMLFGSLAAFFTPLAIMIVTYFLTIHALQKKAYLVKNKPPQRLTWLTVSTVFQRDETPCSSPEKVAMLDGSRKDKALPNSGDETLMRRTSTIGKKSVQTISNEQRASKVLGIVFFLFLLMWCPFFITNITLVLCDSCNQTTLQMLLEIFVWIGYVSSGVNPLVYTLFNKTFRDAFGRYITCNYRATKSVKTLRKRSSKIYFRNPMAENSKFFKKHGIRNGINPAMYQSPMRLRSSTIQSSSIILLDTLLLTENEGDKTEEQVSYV

[16] = target: Tyrosine-protein kinase Lck, LCK (h) (Homo sapiens, UniProt P06239); test: IPP LCK enzymatic activity; assay type: biochemical; conditions: Enzymatic activity; control staurosporine; read-out: IPP Dose Response PoD: LCK
Tyrosine-protein kinase Lck, LCK (h), sequence (P06239 whole entry): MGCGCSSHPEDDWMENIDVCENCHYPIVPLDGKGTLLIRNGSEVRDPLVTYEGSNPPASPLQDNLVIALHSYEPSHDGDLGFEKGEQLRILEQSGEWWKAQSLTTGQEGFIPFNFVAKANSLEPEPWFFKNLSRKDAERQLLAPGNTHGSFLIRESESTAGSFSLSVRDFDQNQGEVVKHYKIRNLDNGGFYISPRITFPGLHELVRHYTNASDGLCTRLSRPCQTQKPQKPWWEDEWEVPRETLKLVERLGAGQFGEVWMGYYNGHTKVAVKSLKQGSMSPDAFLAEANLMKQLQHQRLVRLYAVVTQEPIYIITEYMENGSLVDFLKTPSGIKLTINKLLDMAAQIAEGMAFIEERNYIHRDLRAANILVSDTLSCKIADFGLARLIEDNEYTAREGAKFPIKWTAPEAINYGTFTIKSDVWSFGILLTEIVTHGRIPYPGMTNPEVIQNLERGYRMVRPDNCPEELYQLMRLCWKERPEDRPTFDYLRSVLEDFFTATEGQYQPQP

[17] = 10 uM, ligand/control Colchicine
[18] = IPP screening at 10 uM, control CGS 19755

Structure (SMILES): C[C@H]1O[C@@H](O[C@H]2[C@@H](O)C[C@H](O[C@H]3[C@@H](O)C[C@H](O[C@H]4CC[C@@]5(C)[C@H](CC[C@@H]6[C@@H]5C[C@@H](O)[C@]5(C)[C@@H](C7=CC(=O)OC7)CC[C@]65O)C4)O[C@@H]3C)O[C@@H]2C)C[C@H](O)[C@@H]1O [Digoxin, 3beta-{[2,6-Dideoxy-beta-D-ribo-hexopyranosyl-(1->4)-2,6-dideoxy-beta-D-ribo-hexopyranosyl-(1->4)-2,6-dideoxy-beta-D-ribo-hexopyranosyl]oxy}-12beta,14-dihydroxy-5beta-card-20(22)-enolide]
- Specific binding [1]: 11.3%
- IPP screening %, Coactivator recruitment ([2]; 10 uM): 1.0%
- IPP screening %, Specific binding (Tubulin (r); [17]): -7.0%
- Specific binding [3, 18]: -2.6%
- Specific binding [4]: 0.7%
- Specific binding [5]: -2.7%
- pod_cell_stress PoD (HepG2 cells [6]): 0.0001773 µM
- pod_httr_bifrost PoD (HepaRG cells): 0.01449 µM
- podl_path_minbmd PoD (HepaRG cells): 0.04151 µM
- L2 Cmax estimate underprediction of the L3 plasma Cmax ([7]; largest of any underprediction, printed with ∼): 30- to 50 fold
- underprediction of the L3 result at L2 (Cmax) ([7]; therapeutic uses): ≥ 5 fold
- pod_httr_bifrost PoD (HepG2 cells [8]): 0.007046 µM
- podl_path_minbmd PoD (HepG2 cells [8]): 0.02695 µM
- pod_httr_bifrost PoD (MCF7 cells): 0.003833 µM
- podl_path_minbmd PoD (MCF7 cells): 0.02134 µM
- Specific binding ([9]; IPP screening at 10 uM): 26.2%
- Specific binding [10]: 19.6%
- IPP screening %, Specific binding [11]: -6.2%

Structure (SMILES): NS(=O)(=O)c1cc(C(=O)O)c(NCc2ccco2)cc1Cl [Furosemide, 4-Chloro-2-{[(furan-2-yl)methyl]amino}-5-sulfamoylbenzoic acid]
- IPP screening %, Coactivator recruitment ([2]; 100 uM, * denotes assay interference (2-Amino-6-chloro-4-nitrophenol, HC Red 3)): -1.0%
- IPP screening %, Specific binding (Tubulin (r)): -4.0%
- Specific binding [3]: 5.8%
- pod_cell_stress PoD (HepG2 cells [6]): 2.832 µM
- PoD (NOEL) (rat): 46.9 mg/kg bw/day
- risk [12]: 1
- pod_httr_bifrost PoD (HepaRG cells): 0.2929 µM
- podl_path_minbmd PoD (HepaRG cells): 1.613 µM
- AC50 [13]: 1380 nM
- pod_httr_bifrost PoD (HepG2 cells [8]): 3.253 µM
- podl_path_minbmd PoD (HepG2 cells [8]): 177.032 µM
- pod_httr_bifrost PoD (MCF7 cells): 72.7631 µM
- podl_path_minbmd PoD (MCF7 cells): 520.886 µM
- Specific binding ([9]; IPP screening at 100 uM): 15.2%
- Peff ([14]; PBK level L2, ref [3],[4],[11]): 0.41 cm/s x E-04
- Peff ([14]; PBK level L3, ref [4],[11]): 0.41 cm/s x E-04

Structure (SMILES): COc1ccc(CCN(C)CCCC(C#N)(c2ccc(OC)c(OC)c2)C(C)C)cc1OC (stereo not shown) [Verapamil Hydrochloride, 2-(3,4-Dimethoxyphenyl)-5-{[2-(3,4-dimethoxyphenyl)ethyl](methyl)amino}-2-(propan-2-yl)pentanenitrile--hydrogen chloride (1/1)]
- Specific binding [1]: -6.7%
- IPP screening %, Coactivator recruitment ([2]; 10 uM): 1.0%
- IPP screening %, Specific binding (Tubulin (r); [17]): 13.0%
- Specific binding [3, 18]: 2.5%
- Specific binding [5]: 4.7%
- pod_cell_stress PoD (HepG2 cells [6]): 0.6383 µM
- leading IPP PoD (target) [15]: antagonism of the serotonin 2B receptor
- Specific binding [10]: 74.6%
- IC50 [16]: > 35.8 µM
